The values that follow are results of earlier work, collected in patent US20110245283A1, “Methods for predicting the response to statins” (priority 2009, published 2011).

Like-named read-outs stand apart in the source and are kept apart here.

For this data set the following is noted: cited from earlier work.

For `CCCCc1oc2ccccc2c1C(=O)c1cc(I)c(OCCN(CC)CC)c(I)c1` [Amiodarone], the “Severity of the interaction” value is on record as 3 (with Lova) and 3 (with Simva).
For the compound `CC(C)CN(C[C@@H](O)[C@H](Cc1ccccc1)NC(=O)O[C@H]1CCOC1)S(=O)(=O)c1ccc(N)cc1` [Amprenavir], the “Increased risk of toxicity or reduced statin effectiveness” value was “(+)” (with Atorva), “(+)” (with Lova), “(+)” (with Prava) and “(+)” (with Simva). In addition, the “Severity of the interaction” value reads like this: (with Atorva) 2; (with Lova) 3; (with Prava) 2; (with Simva) 3.
In the case of `COC(=O)N[C@H](C(=O)N[C@@H](Cc1ccccc1)[C@@H](O)CN(Cc1ccc(-c2ccccn2)cc1)NC(=O)[C@@H](NC(=O)OC)C(C)(C)C)C(C)(C)C` [Atazanavir], the “Increased risk of toxicity or reduced statin effectiveness” value is listed as “(+)” (with Atorva), “(+)” (with Lova) and “(+)” (with Simva). Further, the “Severity of the interaction” value (with Atorva) is on record as 3, the “Severity of the interaction” value (with Lova) is listed as 3 and the “Severity of the interaction” value (with Simva) is 3.
In the case of `CC(C)(Oc1ccc(CCNC(=O)c2ccc(Cl)cc2)cc1)C(=O)O` [Bezafibrate], the “Increased risk of toxicity or reduced statin effectiveness” value was “(+)” (with Atorva); “(+)” (with Fluva); “(+)” (with Lova); “(+)” (with Prava); “(+)” (with Simva). Also, the “Severity of the interaction” value is, setting by setting: (with Atorva) 3; (with Fluva) 3; (with Lova) 3; (with Prava) 3; (with Simva) 3.
Regarding `COc1ccccc1Oc1c(NS(=O)(=O)c2ccc(C(C)(C)C)cc2)nc(-c2ncccn2)nc1OCCO` [Bosentan], the “Severity of the interaction” value is given as 2 (with Atorva), 2 (with Lova) and 2 (with Simva).
Regarding `NC(=O)N1c2ccccc2C=Cc2ccccc21` [Carbamazepine], the “Severity of the interaction” value (with Simva) was 2.
For the compound `CC(C)(Oc1ccc(C2CC2(Cl)Cl)cc1)C(=O)O` (stereo not drawn) [Ciprofibrate], the “Increased risk of toxicity or reduced statin effectiveness” value was “(+)” (with Atorva); “(+)” (with Fluva); “(+)” (with Lova); “(+)” (with Prava); “(+)” (with Simva). The “Severity of the interaction” value (with Atorva) is given as 3; the “Severity of the interaction” value (with Fluva) is recorded as 3; the “Severity of the interaction” value (with Lova) is 3; the “Severity of the interaction” value (with Prava) is reported as 3; the “Severity of the interaction” value (with Simva) is 3.
Consider `CC[C@H]1OC(=O)[C@H](C)[C@@H](O[C@H]2C[C@@](C)(OC)[C@@H](O)[C@H](C)O2)[C@H](C)[C@@H](O[C@@H]2O[C@H](C)C[C@H](N(C)C)[C@H]2O)[C@](C)(OC)C[C@@H](C)C(=O)[C@H](C)[C@@H](O)[C@]1(C)O` [Clarithromycin], for which the “Increased risk of toxicity or reduced statin effectiveness” value runs as follows: (with Atorva) “(+)”; (with Lova) “(+)”; (with Simva) “(+)”. Moreover, the “Severity of the interaction” value (with Atorva) is listed as 3, the “Severity of the interaction” value (with Lova) is on record as 3 and the “Severity of the interaction” value (with Simva) was 3.
In the case of `CCOC(=O)C(C)(C)Oc1ccc(Cl)cc1` [Clofibrate], the “Increased risk of toxicity or reduced statin effectiveness” value is recorded as “(+)” (with Atorva); “(+)” (with Fluva); “(+)” (with Lova); “(+)” (with Prava); “(+)” (with Simva). Also, the “Severity of the interaction” value is 3 (with Atorva); 3 (with Fluva); 3 (with Lova); 3 (with Prava); 3 (with Simva).
Take `COC(=O)[C@H](c1ccccc1Cl)N1CCc2sccc2C1` [Clopidogrel]: where the note is “with Fluva”, the “Increased risk of toxicity or reduced statin effectiveness” value is reported as “(+)” and the “Severity of the interaction” value is on record as 2.
On to `CCN(CC)CCS(=O)(=O)[C@@H]1CCN2C(=O)c3coc(n3)CC(=O)C[C@H](O)/C=C(C)/C=C/CNC(=O)/C=C/[C@@H](C)[C@@H](C(C)C)OC(=O)[C@@H]12` [Dalfopristin], for which the “Increased risk of toxicity or reduced statin effectiveness” value was “(+)” (with Atorva); “(+)” (with Fluva); “(+)” (with Lova); “(+)” (with Prava); “(+)” (with Simva). Also, the “Severity of the interaction” value is 3 (with Atorva); 3 (with Fluva); 3 (with Lova); 3 (with Prava); 3 (with Simva).
As to `C#C[C@]1(O)CC[C@H]2[C@@H]3CCC4=Cc5oncc5C[C@]4(C)[C@H]3CC[C@@]21C` [Danazol], under “with Simva”, the “Increased risk of toxicity or reduced statin effectiveness” value is listed as “(+)”.
For the compound `CC(C)Nc1cccnc1N1CCN(C(=O)c2cc3cc(NS(C)(=O)=O)ccc3[nH]2)CC1` [Delavirdine], under “with Atorva”, the “Increased risk of toxicity or reduced statin effectiveness” value is on record as “(+)” and the “Severity of the interaction” value was 2.
For `COc1ccc2nc([S@@+]([O-])Cc3ncc(C)c(OC)c3C)[nH]c2c1` [Esomeprazole], under “with Atorva”, the “Increased risk of toxicity or reduced statin effectiveness” value is on record as “(+)” and the “Severity of the interaction” value is on record as 3.
Consider `CC(C)OC(=O)C(C)(C)Oc1ccc(C(=O)c2ccc(Cl)cc2)cc1` [Fenofibrate], for which the “Increased risk of toxicity or reduced statin effectiveness” value is recorded as “(+)” (with Atorva); “(+)” (with Fluva); “(+)” (with Lova); “(+)” (with Prava); “(+)” (with Simva).
Regarding `OC(Cn1cncn1)(Cn1cncn1)c1ccc(F)cc1F` [Fluconazole], the “Increased risk of toxicity or reduced statin effectiveness” value by setting is: (with Atorva) “(+)”; (with Fluva) “(+)”; (with Lova) “(+)”; (with Rosuva) “(+)”; (with Simva) “(+)”.
On to `CC(C)CN(C[C@@H](OP(=O)(O)O)[C@H](Cc1ccccc1)NC(=O)O[C@H]1CCOC1)S(=O)(=O)c1ccc(N)cc1` [Fosamprenavir], for which the “Increased risk of toxicity or reduced statin effectiveness” value is “(+)” (with Atorva), “(+)” (with Lova) and “(+)” (with Simva). The “Severity of the interaction” value is, setting by setting: (with Atorva) 3; (with Lova) 3; (with Simva) 3.
Regarding `O=C1NC(c2ccccc2)(c2ccccc2)C(=O)N1COP(=O)(O)O` [Fosphenytoin], the “Severity of the interaction” value is 2 (with Atorva) and 2 (with Simva).
`Cc1ccc(C)c(OCCCC(C)(C)C(=O)O)c1` [Gemfibrozil]: the “Increased risk of toxicity or reduced statin effectiveness” value by setting is: (with Atorva) “(+)”; (with Fluva) “(+)”; (with Lova) “(+)”; (with Prava) “(+)”; (with Rosuva) “(+)”; (with Simva) “(+)”. For the same compound, the “Severity of the interaction” value (with Atorva) was 3; the “Severity of the interaction” value (with Fluva) is reported as 3; the “Severity of the interaction” value (with Lova) is 3; the “Severity of the interaction” value (with Prava) is 3; the “Severity of the interaction” value (with Rosuva) is 3; the “Severity of the interaction” value (with Simva) is listed as 3.
Regarding `CCC(C)n1ncn(-c2ccc(N3CCN(c4ccc(OCC5COC(Cn6cncn6)(c6ccc(Cl)cc6Cl)O5)cc4)CC3)cc2)c1=O` (stereo not drawn) [Itraconazole], the “Increased risk of toxicity or reduced statin effectiveness” value runs as follows: (with Atorva) “(+)”; (with Lova) “(+)”; (with Rosuva) “(+)”; (with Simva) “(+)”. Besides, the “Severity of the interaction” value by setting is: (with Atorva) 3; (with Lova) 4; (with Rosuva) 2; (with Simva) 4.
On to `CC(=O)N1CCN(c2ccc(OCC3COC(Cn4ccnc4)(c4ccc(Cl)cc4Cl)O3)cc2)CC1` (stereo not drawn) [Ketoconazole], for which the “Increased risk of toxicity or reduced statin effectiveness” value is reported as “(+)” (with Atorva), “(+)” (with Lova) and “(+)” (with Simva). The “Severity of the interaction” value was 3 (with Atorva), 3 (with Lova) and 3 (with Simva).
In the case of `COCC(=O)O[C@]1(CCN(C)CCCc2nc3ccccc3[nH]2)CCc2cc(F)ccc2[C@@H]1C(C)C` [Mibefradil], the “Increased risk of toxicity or reduced statin effectiveness” value is recorded as “(+)” (with Atorva); “(+)” (with Fluva); “(+)” (with Lova); “(+)” (with Prava); “(+)” (with Simva). Further, the “Severity of the interaction” value is, setting by setting: (with Atorva) 3; (with Fluva) 1; (with Lova) 4; (with Prava) 1; (with Simva) 4.
Turning to `CCc1nn(CCCN2CCN(c3cccc(Cl)c3)CC2)c(=O)n1CCOc1ccccc1` [Nefazodone], the “Increased risk of toxicity or reduced statin effectiveness” value by setting is: (with Atorva) “(+)”; (with Lova) “(+)”; (with Prava) “(+)”; (with Simva) “(+)”. The “Severity of the interaction” value (with Atorva) was 3, the “Severity of the interaction” value (with Lova) is 3, the “Severity of the interaction” value (with Prava) is reported as 2 and the “Severity of the interaction” value (with Simva) is listed as 3.
